Measurements reported in USRE47512E1, “Imidazole and imidazolium resins and methods for preparing curable imidazolium antimicrobial resins” (DENTSPLY SIRONA INC., priority 2011, dated 2019).

Experiment: Solubility of resins @ 37° C.
Assay type: physicochemical

Row | Substance | Solubility @ 37° C. in water (Table I) | Solubility @ 37° C. in water/ethanol (50:50, w/w %) (Table I) | Solubility @ 37° C. in EtOH (Table II, EtOH) | Solubility @ 37° C. in water/ethanol (50:50, w/w %) (Table II)
1 | HEMA-based Monoimidazole-dimethacrylate Resin [Example 3a] | partially | soluble |  | 
2 | Isosorbide-based Bisimidazole-dimethacrylate Resin [Example 1] | partially | soluble |  | 
3 | Isosorbide-based Bisimidazoliumbromide-dimethacrylate Resin [Example 5] |  |  | soluble | soluble
4 | TCDC-based Bisimidazole-dimethacrylate Resin [Example 2] | partially | soluble |  | 
